Measured values taken from ChEMBL document CHEMBL4270624, “Synthesis and antibacterial evaluation of 13-substituted cycloberberine derivatives as a novel class of anti-MRSA agents” (Eur J Med Chem, 2018).

Experiments:
Format in all cases: functional
[1] = tested on: Staphylococcus aureus; assay: Antibacterial activity against methicillin-resistant Staphylococcus aureus 16-34 clinical isolate after 18 hrs by agar dilution method; settings: 16-34, 18 h
[2] = tested on: Staphylococcus aureus; assay: Antibacterial activity against methicillin-sensitive Staphylococcus aureus 16-1 clinical isolate after 18 hrs by agar dilution method; settings: 16-1, 18 h
[3] = tested on: Staphylococcus aureus; assay: Antibacterial activity against methicillin-sensitive Staphylococcus aureus ATCC 29213 after 18 hrs by agar dilution method; settings: ATCC 29213, 18 h
[4] = tested on: Staphylococcus aureus; assay: Antibacterial activity against methicillin-resistant Staphylococcus aureus ATCC BAA-976 after 18 hrs by agar dilution method; settings: ATCC BAA-976, 18 h
[5] = tested on: Staphylococcus aureus; assay: Antibacterial activity against methicillin-resistant Staphylococcus aureus 16-30 clinical isolate after 18 hrs by agar dilution method; settings: 16-30, 18 h
[6] = tested on: Staphylococcus aureus; assay: Antibacterial activity against methicillin-resistant Staphylococcus aureus ATCC BAA-1708 after 18 hrs by agar dilution method; settings: ATCC BAA-1708, 18 h
[7] = tested on: Staphylococcus aureus; assay: Antibacterial activity against methicillin-resistant Staphylococcus aureus 13-23 clinical isolate after 18 hrs by agar dilution method; settings: 13-23, 18 h
[8] = tested on: Staphylococcus aureus; assay: Antibacterial activity against methicillin-resistant Staphylococcus aureus ATCC 43300 after 18 hrs by agar dilution method; settings: ATCC 43300, 18 h
[9] = tested on: Staphylococcus aureus; assay: Antibacterial activity against methicillin-resistant Staphylococcus aureus 13-18 clinical isolate after 18 hrs by agar dilution method; settings: 13-18, 18 h
[10] = tested on: Staphylococcus aureus; assay: Antibacterial activity against methicillin-resistant Staphylococcus aureus ATCC 33591 after 18 hrs by agar dilution method; settings: ATCC 33591, 18 h

Compound	MIC [1]	MIC [2]	MIC [3]	MIC [4]	MIC [5]	MIC [6]	MIC [7]	MIC [8]	MIC [9]	MIC [10]
COC(=O)c1ccc(Cc2cc3c4ccc(OC)c(OC)c4c[n+]4c3c3c(cc5c(c23)OCO5)CC4)cc1.[Br-]	> 64 µg/mL	64 µg/mL	32 µg/mL	32 µg/mL	64 µg/mL	64 µg/mL	64 µg/mL	64 µg/mL	32 µg/mL	32 µg/mL
COc1ccc2c(c[n+]3c4c2cc(Cc2cc(C)cc(C)c2)c2c5c(cc(c24)CC3)OCO5)c1OC.[Br-]	4 µg/mL	4 µg/mL	4 µg/mL	2 µg/mL	4 µg/mL	8 µg/mL	4 µg/mL	8 µg/mL	4 µg/mL	4 µg/mL
COc1ccc2c(c[n+]3c4c2cc(Cc2ccc(C)cc2)c2c5c(cc(c24)CC3)OCO5)c1OC.[Br-]	2 µg/mL	2 µg/mL	2 µg/mL	2 µg/mL	2 µg/mL	8 µg/mL	4 µg/mL	4 µg/mL	4 µg/mL	2 µg/mL
COc1ccc2c(c[n+]3c4c2cc(Cc2c(F)cccc2F)c2c5c(cc(c24)CC3)OCO5)c1OC.[Br-]	2 µg/mL	4 µg/mL	4 µg/mL	2 µg/mL	4 µg/mL	8 µg/mL	4 µg/mL	8 µg/mL	4 µg/mL	8 µg/mL
COc1ccc2c(c[n+]3c4c2cc(Cc2ccccc2[N+](=O)[O-])c2c5c(cc(c24)CC3)OCO5)c1OC.[Br-]	8 µg/mL	8 µg/mL	8 µg/mL	8 µg/mL	8 µg/mL	64 µg/mL	16 µg/mL	32 µg/mL	8 µg/mL	16 µg/mL
COc1ccc2c(c[n+]3c4c2cc(Cc2cc(C(F)(F)F)cc(C(F)(F)F)c2)c2c5c(cc(c24)CC3)OCO5)c1OC.[Br-]	> 64 µg/mL	> 64 µg/mL	> 64 µg/mL	> 64 µg/mL	> 64 µg/mL	> 64 µg/mL	> 64 µg/mL	> 64 µg/mL	> 64 µg/mL	> 64 µg/mL
COc1ccc2c(c[n+]3c4c2cc(Cc2ccc(C(C)(C)C)cc2)c2c5c(cc(c24)CC3)OCO5)c1OC.[Br-]	64 µg/mL	32 µg/mL	32 µg/mL	64 µg/mL	64 µg/mL	64 µg/mL	64 µg/mL	64 µg/mL	64 µg/mL	64 µg/mL
COc1ccc2c(c[n+]3c4c2cc(Cc2ccc(F)cc2)c2c5c(cc(c24)CC3)OCO5)c1OC.[Br-]	4 µg/mL	4 µg/mL	4 µg/mL	4 µg/mL	4 µg/mL	8 µg/mL	2 µg/mL	4 µg/mL	4 µg/mL	4 µg/mL
COc1ccc2c(c[n+]3c4c2cc(Cc2ccc(C#N)cc2)c2c5c(cc(c24)CC3)OCO5)c1OC.[Br-]	> 64 µg/mL	> 64 µg/mL	> 64 µg/mL	> 64 µg/mL	> 64 µg/mL	> 64 µg/mL	> 64 µg/mL	> 64 µg/mL	> 64 µg/mL	> 64 µg/mL
COc1ccc2c(c[n+]3c4c2cc(Cc2ccccc2)c2c5c(cc(c24)CC3)OCO5)c1OC.[Br-]	4 µg/mL	4 µg/mL	4 µg/mL	4 µg/mL	4 µg/mL	8 µg/mL	4 µg/mL	4 µg/mL	8 µg/mL	4 µg/mL
COc1ccc2c(c[n+]3c4c2cc(Cc2ccc(OC(F)(F)F)cc2)c2c5c(cc(c24)CC3)OCO5)c1OC.[Br-]	64 µg/mL	64 µg/mL	32 µg/mL	64 µg/mL	64 µg/mL	64 µg/mL	32 µg/mL	64 µg/mL	32 µg/mL	32 µg/mL
